Reference: patent US20250223281A1, “ANTIDIABETIC COMPOUNDS AND COMPOSITIONS” (REZUBIO PHARMACEUTICALS CO., LTD, priority 2022, published 2025)

Biological target: T1, GPR40 (Homo sapiens, UniProt O14842)
T1 construct: expressed in transfected cells; host or cells: HEK293 cells stably expressing GPR40 (Hygromycin selection)
Assay: IP1 accumulation assay in HEK293 cells stably expressing GPR40
Format: cell-based
Description: IP1 accumulation assay was used to evaluate the potency of compounds. HEK293 cells stably expressing GPR40 were cultured in 5% CO2 incubator (ThermoFisher) in maintenance media (Dulbecco's modified Eagle's medium with 4.5 g/L of glucose, 10% fetal bovine serum, 100 μg/mL Hygromycin, and Penicillin (100 U/mL)/Streptomycin (100 μg/mL)) till 100% confluency. Cells were harvested freshly, spun down at 300×g for 5 min, and resuspended in pre-warmed 1× stimulant buffer from Cisbio IP-One HTRF Detection kit (Cisbio). Cell density was adjusted to 2.0×10^6 cells/mL. DMSO was used as blank control and AMG-1638 (CAS #: 1142214-62-7) as positive control. Compounds were prepared at 10 mM in DMSO and 5 nL of 3× serially diluted compounds (10 concentrations) were added to each well of the 384-LDV assay plate (Corning) by using ECHO 550 (Labcyte). Five μL of cells in suspension were transferred into each well by using Multidrop Combi Reagent Dispenser (ThermoFisher). Assay plate was then sealed and incubated at 37° C. for 2 hours. IP-d2 reagent and anti-IP1 reagent were prepared following the manual (Cisbio). Five μL of IP1-d2 and then 5 μL of anti-IP1 antibody was added to each well sequentially. Assay plate was incubated at room temperature for 60 min and then read at 665 nm/615 nm on an Envision plate reader (PerkinElmer). The ratio of values obtained at 665 nm and 615 nm was used for calculation of IP1 accumulation: % Effect=(Ratiosample−Ratioblank)/(RatioAMG-1638−Ratioblank)×100. Dose curve was fitted and EC50 of each compound was calculated by using XLFit.

[1] = IP1 accumulation, HEK293 cells stably expressing GPR40, 2 hours at 37° C., % effect relative to AMG-1638, table of Biological Example 1
[2] = Tables A-1a to A-7b (structure-property relationship), obtained by methods of Biological Example 1

T1 sequence (O14842 whole entry): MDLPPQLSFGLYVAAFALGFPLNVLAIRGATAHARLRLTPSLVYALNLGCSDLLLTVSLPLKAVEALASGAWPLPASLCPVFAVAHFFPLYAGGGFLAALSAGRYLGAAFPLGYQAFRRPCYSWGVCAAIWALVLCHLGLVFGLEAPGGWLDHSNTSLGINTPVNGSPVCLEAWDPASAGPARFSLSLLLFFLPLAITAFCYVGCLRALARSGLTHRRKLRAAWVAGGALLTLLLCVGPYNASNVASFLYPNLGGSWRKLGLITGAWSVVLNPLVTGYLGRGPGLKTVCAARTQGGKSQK

Question: Which EC50 [1] does the source give for `COc1ccc(C(=O)N(CC(C)(C)CCCCCCn2cc(CCCCCCCCCCC(=O)NCCN(CCC(=O)NCCN)CCC(=O)NCCN)nn2)c2cccc(C)n2)c(N2CCC(COc3cc([C@@H](CC(=O)O)C4CC4)ccn3)CC2)c1` [Example 74] here?
Answer: The EC50 was 2.99 nM.

Question: What about the EC50 [2] of the same molecule?
Answer: Its EC50 is 2.99 nM.

Question: How did the EC50 [1] turn out when `COc1ccc(C(=O)N(CC(C)(C)CCCCCCn2cc(CCCCCCCCC(=O)NCCN(CCC(=O)NCCN)CCC(=O)NCCN)nn2)c2cccc(C)n2)c(N2CCC(COc3cc([C@@H](CC(=O)O)C4CC4)ccn3)CC2)c1` [Example 75] was run?
Answer: Its EC50 is 0.75 nM.

Question: And the EC50 [2]?
Answer: The EC50 was 1.92 nM.

Question: Which EC50 [1] does the source give for `CCCCCNC(=O)CCCCCCCCCCCCCCCCCc1cn(CC(C)(C)Cc2cc(COc3cccc([C@@H](CC(=O)O)C4CC4)c3)ccc2-c2cc(OC)ccc2F)nn1` [Example 76] here?
Answer: Its EC50 is 112 nM.

Question: Which results are given for `C[C@H](C(=O)O)[C@H](c1ccc2c(c1)O[C@@H](C1CCN(Cc3cc(-c4cn(CCCCCCCCCC(=O)NCCN(CCC(=O)NCCN)CCC(=O)NCCN)nn4)ccc3OC(F)(F)F)CC1)CC2)C1CC1` [Example 77]?
Answer: EC50 [1]: 8400 nM; EC50 [2]: > 10000 nM

Question: With `C[C@H](C(=O)O)[C@H](c1ccc2c(c1)O[C@@H](C1CCN(Cc3cc(-n4cc(CCCCCCCCCCCCCC(=O)NCCN(CCC(=O)NCCN)CCC(=O)NCCN)nn4)ccc3OC(F)(F)F)CC1)CC2)C1CC1` [Example 78] as the molecule, how does the EC50 [1] read?
Answer: Its EC50 is 1.4 nM.

Question: And the EC50 [2]?
Answer: The EC50 was 1.4 nM.

Question: Which results are given for `C[C@H](C(=O)O)[C@H](c1ccc2c(c1)O[C@@H](C1CCN(Cc3cc(-n4cc(CCCCCCCCCCC(=O)NCCN(CCC(=O)NCCN)CCC(=O)NCCN)nn4)ccc3OC(F)(F)F)CC1)CC2)C1CC1` [Example 79]?
Answer: EC50 [1]: 183 nM; EC50 [2]: 183 nM

Question: Which results are given for `C[C@H](C(=O)O)[C@H](c1ccc2c(c1)O[C@@H](C1CCN(Cc3cc(-n4cc(CCCCCCCCC(=O)NCCN(CCC(=O)NCCN)CCC(=O)NCCN)nn4)ccc3OC(F)(F)F)CC1)CC2)C1CC1` [Example 80]?
Answer: EC50 [1]: > 5000 nM; EC50 [2]: > 5000 nM

Question: For `COc1ccc(F)c(-c2ccc(COc3cccc([C@@H](CC(=O)O)C4CC4)c3)cc2CC(C)(C)Cn2cc(CCCCCCCCCCCCCCCCCC(=O)NCCCN(CC(=O)O)CC(=O)O)nn2)c1` [Example 81], which EC50 [1] is on record?
Answer: The EC50 was 2.2 nM.

Question: How did the EC50 [1] turn out when `C[C@H](C(=O)O)[C@H](c1ccc2c(c1)O[C@@H](C1CCN(Cc3cc(-c4cn(CCCCCCCCCC(=O)NCC[N+](C)(CCC(=O)NCCN)CCC(=O)NCCN)nn4)ccc3OC(F)(F)F)CC1)CC2)C1CC1` [Example 82] was run?
Answer: Its EC50 is > 10000 nM.

Question: And the EC50 [2]?
Answer: The EC50 was > 10000 nM.

Question: Which EC50 [1] does the source give for `C[C@H](C(=O)O)[C@H](c1ccc2c(c1)O[C@@H](C1CCN(Cc3cc(-c4cn(CCCCCCCCCCCC(=O)NCC[N+](C)(CCC(=O)NCCN)CCC(=O)NCCN)nn4)ccc3OC(F)(F)F)CC1)CC2)C1CC1` [Example 83] here?
Answer: Its EC50 is 651 nM.

Question: What about the EC50 [2] of the same molecule?
Answer: The EC50 was 650 nM.

Question: With `C[C@H](C(=O)O)[C@H](c1ccc2c(c1)O[C@@H](C1CCN(Cc3cc(-c4cn(CCCCCCCCCCCCCCCC(=O)NCC[N+](C)(CCC(=O)NCCN)CCC(=O)NCCN)nn4)ccc3OC(F)(F)F)CC1)CC2)C1CC1` [Example 84] as the molecule, how does the EC50 [1] read?
Answer: The EC50 was 0.74 nM.

Question: And the EC50 [2]?
Answer: Its EC50 is 0.74 nM.

Question: For `CCCCCOC(=O)CCCCCCCCCCCCCCCCCc1cn(CC(C)(C)Cc2cc(COc3cccc([C@@H](CC(=O)O)C4CC4)c3)ccc2-c2cc(OC)ccc2F)nn1` [Example 85], which EC50 [1] is on record?
Answer: The EC50 was > 1300 nM.

Question: What does the source list for `C[C@H](C(=O)O)[C@H](c1ccc2c(c1)O[C@@H](C1CCN(Cc3cc(-n4cc(CCCCCCCCCCC(=O)NCC[N+](C)(CCC(=O)NCCN)CCC(=O)NCCN)nn4)ccc3OC(F)(F)F)CC1)CC2)C1CC1` [Example 86]?
Answer: EC50 [1]: 195 nM; EC50 [2]: 195 nM

Question: How did the EC50 [1] turn out when `COc1ccc(F)c(-c2ccc(COc3cccc([C@@H](CC(=O)O)C4CC4)c3)cc2C(C)(C)c2cn(CCCCCCCCCCCC(=O)NCC[N+](C)(CCC(=O)NCCN)CCC(=O)NCCN)nn2)c1` [Example 87] was run?
Answer: Its EC50 is > 2700 nM.

Question: For `COc1ccc(F)c(-c2ccc(COc3cccc([C@@H](CC(=O)O)C4CC4)c3)cc2OC(C)(C)Cn2cc(CCCCCCCCCCCCCC(=O)NCCN(CCC(=O)NCCN)CCC(=O)NCCN)nn2)c1` [Example 88], which EC50 [1] is on record?
Answer: The EC50 was 22.8 nM.

Question: Which EC50 [1] does the source give for `COc1ccc(F)c(-c2ccc(COc3cccc([C@@H](CC(=O)O)C4CC4)c3)cc2CC(C)(C)Cc2cn(CCCCCCCCCCCCCCCC(=O)NCCN(CCC(=O)NCCN)CCC(=O)NCCN)nn2)c1` [Example 89] here?
Answer: Its EC50 is 2.19 nM.

Question: And the EC50 [2]?
Answer: The EC50 was 2.19 nM.

Question: How did the EC50 [1] turn out when `COc1ccc(F)c(-c2ccc(COc3cccc([C@@H](CC(=O)O)C4CC4)c3)cc2CC(C)(C)Cc2cn(CCCCCCCCCCCCCCCC(=O)NCC[N+](C)(CCC(=O)NCCN)CCC(=O)NCCN)nn2)c1` [Example 90] was run?
Answer: The EC50 was 2.6 nM.

Question: What about the EC50 [2] of the same molecule?
Answer: The EC50 was 2.6 nM.

Question: With `COc1ccc(F)c(-c2ccc(COc3cccc([C@@H](CC(=O)O)C4CC4)c3)cc2CC(C)(C)Cc2cn(CCCCCCCCCCCCCCCCCC(=O)NCC[N+](C)(C)CCCS(=O)(=O)O)nn2)c1` [Example 91] as the molecule, how does the EC50 [1] read?
Answer: The EC50 was 1.52 nM.

Question: How did the EC50 [1] turn out when `COc1ccc(F)c(-c2ccc(COc3cccc([C@@H](CC(=O)O)C4CC4)c3)cc2CC(C)(C)Cc2cn(CCCCCCCCCCCC(=O)NCCN(CCC(=O)NCCN)CCC(=O)NCCN)nn2)c1` [Example 92] was run?
Answer: The EC50 was 212 nM.

Question: And the EC50 [2]?
Answer: The EC50 was 212 nM.

Question: Which EC50 [1] does the source give for `COc1ccc(F)c(-c2ccc(COc3cccc([C@@H](CC(=O)O)C4CC4)c3)cc2CC(C)(C)Cn2cc(CCCCCCCCCCCCCCCCCC(=O)NCCC[N+](C)(CC(=O)O)CC(=O)O)nn2)c1` [Example 93] here?
Answer: Its EC50 is 4.58 nM.

Question: How did the EC50 [1] turn out when `COc1ccc(F)c(-c2ccc(COc3cccc([C@@H](CC(=O)O)C4CC4)c3)cc2CC(C)(C)Cn2cc(CCCCCCC(=O)NCCN(CCC(=O)NCCN)CCC(=O)NCCN)nn2)c1` [Example 94] was run?
Answer: Its EC50 is 1950 nM.

Question: And the EC50 [2]?
Answer: Its EC50 is 1950 nM.

Question: Which results are given for `COc1ccc(F)c(-c2ccc(COc3cccc([C@@H](CC(=O)O)C4CC4)c3)cc2CC(C)(C)Cn2cc(CCCCCCC(=O)NCC[N+](C)(CCC(=O)NCCN)CCC(=O)NCCN)nn2)c1` [Example 95]?
Answer: EC50 [1]: > 10000 nM; EC50 [2]: > 10000 nM

Question: `COc1ccc(F)c(-c2ccc(COc3cccc([C@@H](CC(=O)O)C4CC4)c3)cc2CC(C)(C)Cc2cn(CCCCCCCCCC(=O)NCC[N+](C)(CCC(=O)NCCN)CCC(=O)NCCN)nn2)c1` [Example 96] was tested. Which EC50 [1] did it give?
Answer: Its EC50 is 1050 nM.

Question: What about the EC50 [2] of the same molecule?
Answer: Its EC50 is 1050 nM.

Question: With `COc1ccc(F)c(-c2ccc(COc3cccc([C@@H](CC(=O)O)C4CC4)c3)cc2CC(C)(C)Cc2cn(CCCCCCCCCCCC(=O)NCC[N+](C)(CCC(=O)NCCN)CCC(=O)NCCN)nn2)c1` [Example 97] as the molecule, how does the EC50 [1] read?
Answer: Its EC50 is 328 nM.

Question: What about the EC50 [2] of the same molecule?
Answer: The EC50 was 328 nM.

Question: Which EC50 [1] does the source give for `COc1ccc(C(=O)N(CC(C)(C)CCCCCCn2cc(CCCCCCC(=O)NCCN(CCC(=O)NCCN)CCC(=O)NCCN)nn2)c2cccc(C)n2)c(N2CCC(COc3cc([C@@H](CC(=O)O)C4CC4)ccn3)CC2)c1` [Example 98] here?
Answer: The EC50 was 3.54 nM.

Question: What about the EC50 [2] of the same molecule?
Answer: The EC50 was 3.54 nM.

Question: `COc1ccc(C(=O)N(CC(C)(C)CCCCCCn2cc(CCCCCCC(=O)NCC[N+](C)(CCC(=O)NCCN)CCC(=O)NCCN)nn2)c2cccc(C)n2)c(N2CCC(COc3cc([C@@H](CC(=O)O)C4CC4)ccn3)CC2)c1` [Example 99] was tested. Which EC50 [1] did it give?
Answer: The EC50 was 4.58 nM.

Question: What about the EC50 [2] of the same molecule?
Answer: The EC50 was 4.58 nM.

Question: Which results are given for `COc1ccc(F)c(-c2ccc(COc3cccc([C@@H](CC(=O)O)C4CC4)c3)cc2CC(C)(C)Cc2cn(CCCCCCCCCCCCCCC(=O)NCC[N+](C)(CCC(=O)NCCN)CCC(=O)NCCN)nn2)c1` [Example 102]?
Answer: EC50 [1]: 4.05 nM; EC50 [2]: 4.05 nM

Question: Which EC50 [1] does the source give for `COc1ccc(F)c(-c2ccc(COc3cccc([C@@H](CC(=O)O)C4CC4)c3)cc2C(C)(C)c2cn(CCCCCCCCCCCCCCCC(=O)NCC[N+](C)(CCC(=O)NCCN)CCC(=O)NCCN)nn2)c1` [Example 103] here?
Answer: The EC50 was 21.5 nM.

Question: Which EC50 [1] does the source give for `COc1ccc(F)c(-c2ccc(COc3cccc([C@@H](CC(=O)O)C4CC4)c3)cc2CC(C)(C)Cn2cc(CCCCCCCCCC(=O)NCCCN(CC(=O)O)CC(=O)O)nn2)c1` [Example 104] here?
Answer: The EC50 was > 10000 nM.
